According to patent US20240024273A1, “TOPICAL ADMINISTRATION OF 2-(DIETHYLAMINO)ETHYL 2-(4-ISOBUTYLPHENYL)PROPRIONATE FOR TREATMENT OF DISEASES” (TECHFIELDS PHARMA CO., LTD., priority 2020, published 2024):
Read-outs that look alike come from different tables or passages of the source.

What was measured:
dogs = experiment: Cardiovascular telemetry study in the unrestrained conscious non-naïve dog; format: in vivo; details: dermal 10, 25 and 50 mg/kg; up to 48 hours
[1] = Acute dermal maximum tolerated dose study; format: in vivo, Rats; details: both sexes, rat, in vivo, topical or ocular, 1000 mg/kg; once, dermal; male and female rats
rats = experiment: Acute dermal maximum tolerated dose study; format: in vivo; details: single dermal dose 1000 mg/kg
[2] = 14-day repeated dermal dose toxicity study; set-up: species or system Beagle dogs; details: beagle, dog, in vivo, topical or ocular; 14-day dermal
[3] = 28-day GLP repeated dermal dose toxicity and toxicokinetics study; set-up: species or system Rats; details: rat, in vivo; for Cmax / AUC(0-t): topical, 100 mg/kg/day, Day 28; for AUC(0-t): read-out: AUC0-24 h
[4] = as above; set-up: species or system Beagle dogs; details: beagle, dog, in vivo, topical or ocular, 28-day dermal
mini pigs = experiment: 39-week GLP repeated dermal dose toxicity and toxicokinetics study with 4-week recovery; format: in vivo; details: 5, 12.5 and 25 mg/kg dermal, 39 weeks
[5] = In vitro half-life with animal skin; format: in vitro ADME; details: read-out: in vitro T1/2 (converted)
[6] = system: osteoarthritis of the knee; experiment: Second Phase 2 study: WOMAC stiffness subscale score; format: in vivo, human; details: Low Dose (2 spray/knee, 8.75 mg/knee) Cohort

CCN(CC)CCOC(=O)C(C)c1ccc(CC(C)C)cc1 (centres unmarked) [2-(diethylamino)ethyl 2-(4-isobutylphenyl)propionate]
qualitative ECG parameters (dogs): 25, and 50 mg/kg of ibuprofenamine and vehicle in dogs. There were no effects
MTD [1]: > 1000 mg/kg
tolerability (rats): 2-(4-isobutylphenyl)propionate to rats at 1000 mg/kg was well tolerated
NOAEL at 14 days [2]: 50 mg/kg/day
NOAEL at 28 days ([3]; both sexes, topical or ocular, 28-day dermal, male and female, read-out: systemic NOAEL): 100 mg/kg/day
Cmax ([3]; female, females): 46800 ng/mL
AUC(0-t) ([3]; female, females): 422 µg·h/mL
Cmax ([3]; male, males): 47400 ng/mL
AUC(0-t) ([3]; male, males): 165 µg·h/mL
NOAEL at 28 days ([3]; ulcers at application site at ≥100 mg/kg/day, read-out: local NOAEL): 25 mg/kg/day
NOAEL at 28 days ([4]; read-out: NOAEL (not attained; ulcers at application site at lowest dose)): < 12.4 mg/kg/day
NOAEL at 28 days ([4]; read-out: systemic NOAEL (tissues other than the dermal application site)): 24.8 mg/kg/day
local or systemic adverse effects (mini pigs): mini pigs with 4-week recovery was done and no test article-related local
half-life [5]: ~20 h
WOMAC Joint Stiffness Subscale Score, Follow-up, Avg. ([6]; Avg. of all patients (blinded), Follow-up): 41.4
WOMAC Joint Stiffness Subscale Score, Day 1 ([6]; individual patient (blinded), Day 1): 60.5
WOMAC Joint Stiffness Subscale Score, Week 8 ([6]; individual patient (blinded), Week 8): 64.5
